Where a name gives a salt, the structure may show the parent alone.
biological target: T1, hiNOS (Homo sapiens, UniProt P35228); test: DAN assay, hiNOS expressed in transiently transfected HEK293 cells; type: cell-based; settings: HEK293 cells transiently transfected with hiNOS
T1 construct: expressed in transfected cells; host or cells: HEK293
Description: The source of nitric oxide synthase (NOS) enzyme can be generated in several ways including induction of endogenous iNOS using cytokines and/or lipopolysaccharide (LPS) in various cell types known in the art. Alternatively, the gene encoding the enzyme can be cloned and the enzyme can be generated in cells via heterologous expression from a transient or stable expression plasmid with suitable features for protein expression as are known in the art. Enzymatic activity (nitric oxide production) is calcium independent for iNOS, while the constitutive NOS isoforms, nNOS and eNOS, become active with the addition of various cofactors added to cellular media or extract as are well known in the art. Enzymes specified in Table 1 were expressed in HEK293 cells transiently transfected with the indicated NOS isoform.
A major metabolic pathway for nitric oxide is to nitrate and nitrite, which are stable metabolites within tissue culture, tissue, plasma, and urine (S Moncada, A Higgs, N Eng J Med 329, 2002 (1993)).
The level of nitrate or nitrite in the specimen can be quantified by any method known in the art which provides adequate sensitivity and reproducibility. A variety of protocols have also been described for detecting and quantifying nitrite and nitrate levels in biological fluids by ion chromatography (e.g., S A Everett et al., J. Chromatogr. 706, 437 (1995); J M Monaghan et al., J. Chromatogr. 770, 143 (1997)), high-performance liquid chromatography (e.g., M Kelm et al., Cardiovasc. Res. 41, 765 (1999)), and capillary electrophoresis (M A Friedberg et al., J. Chromatogr. 781, 491 (1997)). For example, 2,3-diaminonaphthalene reacts with the nitrosonium cation that forms spontaneously from NO to form the fluorescent product […]. Using 2,3-diaminonaphthalene (“DAN”), researchers have developed a rapid, quantitative fluorometric assay that can detect from 10 nM to 10 μM nitrite and is compatible with a multi-well microplate format. […] DAN reacts with nitrite ion and gives fluorescent […] (M C Carré et al., Analysis 27, 835-838 (1999)). Table 1 provides the test results of various compounds of the subject invention using the DAN assay.
A specimen can be processed prior to determination of nitrate or nitrite as required by the quantification method, or in order to improve the results, or for the convenience of the investigator. For example, processing can involve centrifuging, filtering, or homogenizing the sample. If the sample is whole blood, the blood can be centrifuged to remove cells and the nitrate or nitrite assay performed on the plasma or serum fraction. If the sample is tissue, the tissue can be dispersed or homogenized by any method known in the art prior to determination of nitrate or nitrite. It may be preferable to remove cells and other debris by centrifugation or another method and to determine the nitrate or nitrite level using only the fluid portion of the sample, or the extracellular fluid fraction of the sample. The sample can also be preserved for later determination, for example by freezing of urine or plasma samples. When appropriate, additives may be introduced into the specimen to preserve or improve its characteristics for use in the nitrate or nitrite assay.
The “level” of nitrate, nitrite, or other NO-related product usually refers to the concentration (in moles per liter, micromoles per liter, or other suitable units) of nitrate or nitrite in the specimen, or in the fluid portion of the specimen. However, other units of measure can also be used to express the level of nitrate or nitrite. For example, an absolute amount (in micrograms, milligrams, nanomoles, moles, or other suitable units) can be used, particularly if the amount refers back to a constant amount (e.g., grams, kilograms, milliliters, liters, or other suitable units) of the specimens under consideration. A number of commercially available kits can be used.

Row | Compound | EC50 [nM]
1 | CCOC(=O)C(CC(=O)NCCc1ccc2c(c1)OCO2)c1nc(-n2ccnc2)ns1 (centres unmarked) [Example 67, N-(2-Benzo[1,3]dioxol-5-yl-ethyl)-2-(3-imidazol-1-yl-[2,4]thiadiazol-5-yl)-succinamic acid ethyl ester] | < 1000
2 | CC(NCCNCc1ccc2c(c1)OCO2)c1csc(-n2ccnc2)n1 (centres unmarked) [Example 68, N-Benzo[1,3]dioxol-5-ylmethyl-N′-[1-(2-imidazol-1-yl-thiazol-4-yl)-ethyl]-ethane-1,2-diamine] | < 1000
3 | CCOC(=O)CN(Cc1cc(C)nc(-n2ccnc2)n1)C(=O)NCCc1ccc2c(c1)OCO2 [Example 69, [3-(2-Benzo[1,3]dioxol-5-yl-ethyl)-1-(2-imidazol-1-yl-6-methyl-pyrimidin-4-ylmethyl)-ureido]-acetic acid ethyl ester] | < 1000
4 | Cc1cc(CN(CC(N)=O)C(=O)NCCc2ccc3c(c2)OCO3)nc(-n2ccnc2)n1 [Example 70, (2-[3-(2-Benzo[1,3]dioxol-5-yl-ethyl)-1-(2-imidazol-1-yl-6-methyl-pyrimidin-4-ylmethyl)-ureido]-acetamide)] | < 1000
5 | Cc1cc(CNS(=O)(=O)NCCc2ccc3c(c2)OCO3)nc(-n2ccnc2)n1 [Example 71] | < 50000
6 | Cc1cc(C(C)(C)C(=O)NCCCc2ccc3c(c2)OCO3)nc(-n2ccnc2)n1 [Example 72, 2-(2-(1H-imidazol-1-yl)-6-methylpyrimidin-4-yl)-N-(3-(benzo[d][1,3]dioxol-5-yl)propyl)-2-methylpropanamide] | < 50000
7 | Cc1cc(C(C)(C)/C=C/C(=O)NCc2ccc3c(c2)OCO3)nc(-n2ccnc2)n1 [Example 74, (E)-4-(2-(1H-Imidazol-1-yl)-6-methylpyrimidin-4-yl)-N-(benzo[d][1,3]dioxol-5-ylmethyl)-4-methylpent-2-enamide] | < 50000
8 | Cc1cc(C(C)(C)CCC(=O)NCc2ccc3c(c2)OCO3)nc(-n2ccnc2)n1 [Example 75, 4-(2-(1H-Imidazol-1-yl)-6-methylpyrimidin-4-yl)-N-(benzo[d][1,3]dioxol-5-ylmethyl)-4-methylpentanamide] | < 1000
9 | Cc1cc(C(C)(C)CCCNCc2ccc3c(c2)OCO3)nc(-n2ccnc2)n1 [Example 76, 4-(2-(1H-Imidazol-1-yl)-6-methylpyrimidin-4-yl)-N-(benzo[d][1,3]dioxol-5-ylmethyl)-4-methylpentan-1-amine] | < 1000
10 | Cc1cc(C(C)(C)NCCNCc2ccc3c(c2)OCO3)nc(-n2ccnc2)n1 [Example 77, N-1-(2-(2-(1H-Imidazol-1-yl)-6-methylpyrimidin-4-yl)propan-2-yl)-N-2-(benzo[d][1,3]dioxol-5-ylmethyl)ethane-1,2-diamine hydrochloride] | < 1000
11 | Cc1cc(C(C)(C)CNCCCc2ccc3c(c2)OCO3)nc(-n2ccnc2)n1 [Example 78, (3-Benzo[1,3]dioxol-5-yl-propyl)-{2-[2-(2H-imidazol-1-yl)-6-methyl-pyrimidin-4-yl]-2-methyl-propyl}-amine hydrochloride] | < 1000
12 | CN(CCCN(C)c1nc(-n2ccnc2)ns1)Cc1ccc2c(c1)OCO2 [Example 79, N-Benzo[1,3]dioxol-5-ylmethyl-N′-(3-imidazol-1-yl-[1,2,4]thiadiazol-5-yl)-N,N′-dimethyl-propane-1,3-diamine] | < 1000
13 | CN(CCCN(Cc1ccc2c(c1)OCO2)C(=O)OC(C)(C)C)c1nc(-n2cnc(I)c2)ns1 [Example 80] | > 50000
14 | CN(CCCNCc1ccc2c(c1)OCO2)c1nc(-n2cnc(I)c2)ns1 [Example 81, N′-Benzo[1,3]dioxol-5-ylmethyl-N-[3-(4-iodo-imidazol-1-yl)-[1,2,4]thiadiazol-5-yl]-N-methyl-propane-1,3-diamine] | > 50000
15 | CN(CCCN(C)c1nc(-n2ccnc2)ns1)Cc1ccc2c(c1)OCCO2 [Example 82, N-(2,3-Dihydro-benzo[1,4]dioxin-6-ylmethyl)-N′-(3-imidazol-1-yl-[1,2,4]thiadiazol-5-yl)-N,N′-dimethyl-propane-1,3-diamine] | < 1000
16 | CN(CCNCCc1ccc2c(c1)OCCO2)c1nc(-n2ccnc2)ns1 [Example 83, N′-[2-(2,3-Dihydro-benzo[1,4]dioxin-6-yl)-ethyl]-N-(3-imidazol-1-yl-[1,2,4]thiadiazol-5-yl)-N-methyl-ethane-1,2-diamine] | < 1000
17 | CN(CCc1ccc2c(c1)OCCO2)CCN(C)c1nc(-n2ccnc2)ns1 [Example 84, N-[2-(2,3-Dihydro-benzo[1,4]dioxin-6-yl)-ethyl]-N′-(3-imidazol-1-yl-[1,2,4]thiadiazol-5-yl)-N,N′-dimethyl-ethane-1,2-diamine] | < 1000
18 | CN(CCCNCCc1ccc2c(c1)OCO2)c1nc(-n2ccnc2)ns1 [Example 87, N′-(2-Benzo[1,3]dioxol-5-ethyl)-N-(3-imidazol-1-yl-[1,2,4]thiadiazol-5-yl)-N-methyl-propane-1,3-diamine] | < 1000

Continued, values first:

Row | EC50 [nM] | Compound
19 | < 1000 | CN(CCCNCCc1ccc2c(c1)OCCO2)c1nc(-n2ccnc2)ns1 [Example 85, N′-[2-(2,3-Dihydro-benzo[1,4]dioxin-6-yl)-ethyl]-N-(3-imidazol-1-yl-[1,2,4]thiadiazol-5-yl)-N-methyl-propane-1,3-diamine]
20 | < 1000 | CN(CCCN(C)c1nc(-n2ccnc2)ns1)CCc1ccc2c(c1)OCCO2 [Example 86, N-[2-(2,3-Dihydro-benzo[1,4]dioxin-6-yl)-ethyl]-N′-(3-imidazol-1-yl-[1,2,4]thiadiazol-5-yl)-N,N′-dimethyl-propane-1,3-diamine]
21 | < 1000 | CN(CCCN(C)c1nc(-n2ccnc2)ns1)CCc1ccc2c(c1)OCO2 [Example 88, N-(2-Benzo[1,3]dioxol-5-yl-ethyl)-N′-(3-imidazol-1-yl-[1,2,4]thiadiazol-5-yl)-N,N′-dimethyl-propane-1,3-diamine]
22 | < 1000 | CN(CCN1CCCC1c1nc(-n2ccnc2)ns1)Cc1ccc2c(c1)OCO2 (centres unmarked) [Example 89, Benzo[1,3]dioxol-5-ylmethyl-{2-[2-(3-imidazol-1-yl-[1,2,4]thiadiazol-5-yl)-pyrrolidin-1-yl]-ethyl}-methyl-amine]
23 | < 1000 | Cc1cc(C2CCCN2CCNCc2ccc3c(c2)OCCO3)nc(-n2ccnc2)n1 (centres unmarked) [Example 92, (2,3-Dihydro-benzo[1,4]dioxin-6-ylmethyl)-{2-[2-(2-imidazol-1-yl-6-methyl-pyrimidin-4-yl)-pyrrolidin-1-yl]-ethyl}-amine]
24 | < 1000 | Cc1cc(C2CCCN2CCN(C)Cc2ccc3c(c2)OCCO3)nc(-n2ccnc2)n1 (centres unmarked) [Example 93, (2,3-Dihydro-benzo[1,4]dioxin-6-ylmethyl)-{2-[2-(2-imidazol-1-yl-6-methyl-pyrimidin-4-yl)-pyrrolidin-1-yl]-ethyl}-methyl-amine]
25 | < 1000 | NC(=O)C1CCC(C(=O)NCCc2ccc3c(c2)OCO3)N1c1nc(-n2ccnc2)ns1 (centres unmarked) [Example 95]
26 | < 50000 | CNC(=O)C1CCC(C(=O)NCCc2ccc3c(c2)OCO3)N1c1nc(-n2ccnc2)ns1 (centres unmarked) [Example 96, 1-(3-Imidazol-1-yl-[1,2,4]thiadiazol-5-yl)-pyrrolidine-2,5-dicarboxylic acid 2-[(2-benzo[1,3]dioxol-5-yl-ethyl)-amide] 5-methylamide]
27 | < 50000 | Cc1cc(C(C)NCCNCc2ccc(-n3cccc3)cc2)nc(-n2ccnc2)n1 (centres unmarked) [Example 97, N-[1-(2-Imidazol-1-yl-6-methyl-pyrimidin-4-yl)-ethyl]-N′-(4-pyrrol-1-yl-benzyl)-ethane-1,2-diamine]
28 | < 1000 | COc1ccc(CNCCNC(C)c2cc(C)nc(-n3ccnc3)n2)cc1F (centres unmarked) [Example 98, N-(3-Fluoro-4-methoxy-benzyl)-N′-[1-(2-imidazol-1-yl-6-methyl-pyrimidin-4-yl)-ethyl]-ethane-1,2-diamine]
29 | < 50000 | COc1ccc(CNCCNC(C)c2cc(C)nc(-n3ccnc3)n2)cc1O (centres unmarked) [Example 100, 5-({2-[1-(2-Imidazol-1-yl-6-methyl-pyrimidin-4-yl)-ethylamino]-ethylamino}-methyl)-2-methoxy-phenol]

Source: patent publication US7825256B2, “Inducible nitric oxide synthase dimerization inhibitors” (Kalypsys, Inc., priority 2004, dated 2010)
